Reference: paper PMC3652196, “Pharmacometrics of 3-Methoxypterostilbene: A Component of Traditional Chinese Medicinal Plants” (Evidence-based Complementary and Alternative Medicine : eCAM, 2013)

Molecular target: T1, COX-2 (Homo sapiens, UniProt P35354)
T1 construct: purchased Cayman Chemical 560131
T1 sequence (P35354 18-604): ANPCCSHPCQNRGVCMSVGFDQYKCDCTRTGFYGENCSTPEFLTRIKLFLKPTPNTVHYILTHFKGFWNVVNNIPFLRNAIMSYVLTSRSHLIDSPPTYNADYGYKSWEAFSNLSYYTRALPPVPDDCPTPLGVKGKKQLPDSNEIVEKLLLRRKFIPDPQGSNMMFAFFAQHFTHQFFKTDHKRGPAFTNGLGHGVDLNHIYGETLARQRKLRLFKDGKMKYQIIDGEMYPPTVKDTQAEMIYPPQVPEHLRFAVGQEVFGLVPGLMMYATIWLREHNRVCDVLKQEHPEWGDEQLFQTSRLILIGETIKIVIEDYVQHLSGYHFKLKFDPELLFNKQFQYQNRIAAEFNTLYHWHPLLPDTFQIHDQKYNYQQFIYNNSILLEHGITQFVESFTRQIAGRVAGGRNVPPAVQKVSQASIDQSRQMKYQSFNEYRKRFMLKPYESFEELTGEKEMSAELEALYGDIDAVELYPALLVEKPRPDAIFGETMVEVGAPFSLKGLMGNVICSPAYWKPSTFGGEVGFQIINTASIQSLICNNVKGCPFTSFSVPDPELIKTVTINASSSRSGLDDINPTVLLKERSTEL
Test: COX inhibitor screening assay (EIA of prostaglandins), COX-2
Format: biochemical
Experimental: The inhibition of COX-1 and -2 by 3-methoxypterostilbene was measured through the use of a three-day commercial assay kit. The assay relied on the quantification of the prostanoid product based on enzyme immunoassay (EIA), which uses a nonspecific antibody for prostaglandins (PGs). The constant concentration of the PG-AChE-tracer and the varying concentrations of the PGs available to bind to the antiserum is inversely proportional to the concentration of free PGs in the well. For this assay, 3-methoxypterostilbene was dissolved in DMSO over the concentration range of 1–250 μg/mL. Ibuprofen and etodolac, COX-2 preferential NSAIDs, were dissolved in DMSO and used as controls over the concentration range of 1–250 μg/mL. Reagents were prepared according to the manufacturer's instructions that accompanied the kit. The ELISA plate for this purpose was read at an absorbance of 415 nm within 10 minutes at room temperature (23 ± 1°C) using the Synergy HT multiwell plate reader and Gen5 data analysis software (Biotek Instruments Inc., Winooski, VT, USA). The assay was performed in quadruplet. For more information regarding the assay protocol, please refer to the instructions for the kit (COX Inhibitor Screening Assay Kit from Cayman Chemical—Cat. no. 560131).

For `COc1cc(/C=C/c2ccc(O)c(OC)c2)cc(OC)c1` [3-methoxypterostilbene, trans-3,3′-5-trimethoxy-4′-hydro-xystilbene], the “COX-2 inhibition versus NSAIDs (in words)” value (10 μg/mL) was “statistically greater inhibition (P < 0.05) than etodolac at 1 μg/mL and ibuprofen at 250 μg/mL” and the “COX-2 inhibitory activity (in words)” value (1, 10 and 250 μg/mL) was “moderate inhibition of COX-2”.
